The supplement of paper PMC10307832

Tests used:
Assay in all cases: relative viability (nuclei count vs DMSO), 5 days (fraction); higher = more cells survive
[1] = compound: CO[C@@H]1[C@H](N(C)C(=O)c2ccccc2)C[C@H]2O[C@]1(C)n1c3ccccc3c3c4c(c5c6ccccc6n2c5c31)C(=O)NC4 [Midostaurin] + O=C(c1cc(Cc2n[nH]c(=O)c3ccccc23)ccc1F)N1CCN(C(=O)C2CC2)CC1 [Olaparib] (partner 8 µM)
In short: (§1)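 Relative viability was taken as the ratio of nuclei in treated wells to nuclei in vehicle wells. Lung cancer cell lines in 1536-well plates received compounds by pin tool one day after seeding, either one drug alone or a fixed anchor-drug dose plus five library-drug doses (not always all listed) in √10 steps. Nuclei were counted on 4× images after 5 days of treatment, and values are medians of duplicate plates.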

[2] = compound: CO[C@@H]1[C@H](N(C)C(=O)c2ccccc2)C[C@H]2O[C@]1(C)n1c3ccccc3c3c4c(c5c6ccccc6n2c5c31)C(=O)NC4 [Midostaurin] + Cc1nc(Nc2ncc(C(=O)Nc3c(C)cccc3Cl)s2)cc(N2CCN(CCO)CC2)n1 [Dasatinib] (partner 0.075 µM)
In short: as §1

[3] = compound: COc1cc(-c2nn([C@H]3CC[C@H](N4CCN(C(C)=O)CC4)CC3)c3ncnc(N)c23)ccc1NC(=O)c1cc2ccccc2n1C + CC(=O)Nc1cccc(-n2c(=O)n(C3CC3)c(=O)c3c(Nc4ccc(I)cc4F)n(C)c(=O)c(C)c32)c1 [Trametinib] (partner 0.02 µM)
In short: as §1

[4] = compound: COc1cc(-c2nn([C@H]3CC[C@H](N4CCN(C(C)=O)CC4)CC3)c3ncnc(N)c23)ccc1NC(=O)c1cc2ccccc2n1C + COc1cccc2cc(-c3nc([C@H]4CC[C@H](C(=O)O)CC4)n4ncnc(N)c34)[nH]c12 [OSI-027] (partner 0.5 µM)
In short: as §1

[5] = compound: COc1cc(-c2nn([C@H]3CC[C@H](N4CCN(C(C)=O)CC4)CC3)c3ncnc(N)c23)ccc1NC(=O)c1cc2ccccc2n1C + C[C@@H](Oc1cc(-c2cnn(C3CCNCC3)c2)cnc1N)c1c(Cl)ccc(F)c1Cl [Crizotinib] (partner 1 µM)
In short: as §1

Row | Cell Line | relative viability ([1]; first compound 0.01 µM) | relative viability ([1]; first compound 0.03162 µM) | relative viability ([1]; first compound 0.1 µM) | relative viability ([1]; first compound 0.3162 µM) | relative viability ([2]; first compound 0.01 µM) | relative viability ([2]; first compound 0.03162 µM) | relative viability ([2]; first compound 0.1 µM) | relative viability ([2]; first compound 0.3162 µM) | relative viability ([3]; first compound 0.0128 µM) | relative viability ([3]; first compound 0.04048 µM) | relative viability ([3]; first compound 0.128 µM) | relative viability ([3]; first compound 1.28 µM) | relative viability ([4]; first compound 0.0128 µM) | relative viability ([4]; first compound 0.04048 µM) | relative viability ([4]; first compound 0.128 µM) | relative viability ([4]; first compound 1.28 µM) | relative viability ([5]; first compound 0.0128 µM) | relative viability ([5]; first compound 0.04048 µM) | relative viability ([5]; first compound 0.128 µM) | relative viability ([5]; first compound 1.28 µM)
1 | NCI-H460 | 0.406 | 0.417 | 0.314 | 0.382 | 0.576 | 0.493 | 0.478 | 0.553 | 0.111 | 0.0655 | 0.148 | 0.058 | 0.609 | 0.584 | 0.623 | 0.395 | 0.854 | 1.01 | 0.966 | 0.682
2 | NCI-H1666 | 0.709 | 0.708 | 0.694 | 0.673 | 0.864 | 0.709 | 0.716 | 0.772 | 0.899 | 0.835 | 0.819 | 0.918 | 0.795 | 0.789 | 0.764 | 0.784 | 0.909 | 0.904 | 0.97 | 0.827
3 | NCI-H1651 | 0.199 | 0.2 | 0.169 | 0.17 | 0.322 | 0.488 | 0.408 | 0.446 | 0.843 | 0.832 | 0.79 | 0.771 | 0.664 | 0.748 | 0.531 | 0.644 | 0.902 | 0.908 | 0.81 | 0.712
4 | NCI-H1755 | 0.864 | 0.884 | 0.783 | 0.779 | 0.413 | 0.447 | 0.436 | 0.343 | 0.907 | 0.651 | 0.769 | 0.745 | 0.829 | 0.644 | 0.676 | 0.662 | 1 | 0.795 | 0.875 | 0.616
5 | NCI-H661 | 0.721 | 0.7 | 0.714 | 0.717 | 0.882 | 0.806 | 0.852 | 0.737 | 0.474 | 0.469 | 0.557 | 0.506 | 0.721 | 0.722 | 0.691 | 0.575 | 1.09 | 1.03 | 1.07 | 1.1
6 | HARA | 0.786 | 0.842 | 0.644 | 0.752 | 0.262 | 0.22 | 0.269 | 0.283 | 0.617 | 0.273 | 0.56 | 0.418 | 0.489 | 0.312 | 0.482 | 0.248 | 1.02 | 1.1 | 0.914 | 0.623
7 | NCI-H596 | 0.77 | 0.691 | 0.722 | 0.777 | 0.661 | 0.662 | 0.646 | 0.729 | 0.915 | 0.8 | 0.88 | 0.554 | 0.681 | 0.526 | 0.641 | 0.441 | 0.943 | 1.2 | 1.01 | 0.64
8 | NCI-H23 | 0.317 | 0.296 | 0.296 | 0.223 | 0.88 | 0.659 | 0.559 | 0.523 | 0.405 | 0.25 | 0.281 | 0.226 | 0.646 | 0.368 | 0.578 | 0.415 | 0.534 | 0.533 | 0.458 | 0.376
